Test results taken from US7189758B2, “Glucocorticoid mimetics, methods of making them, pharmaceutical formulations, and uses thereof” (Boehringer Ingelheim Pharmaceuticals, Inc., priority 2002, dated 2007).

How the values were obtained:
[1] = target: T1, human glucocorticoid receptor (GR) complex (Homo sapiens, UniProt P04150); assay: Glucocorticoid receptor competitive binding assay (fluorescence polarization, TAMRA-labeled dexamethasone probe); conditions: result in words only; IC50 values not given
T1 construct: made in house; host or cells: insect cells (baculovirus expression), used as crude lysate
T1 sequence (P04150 1-777): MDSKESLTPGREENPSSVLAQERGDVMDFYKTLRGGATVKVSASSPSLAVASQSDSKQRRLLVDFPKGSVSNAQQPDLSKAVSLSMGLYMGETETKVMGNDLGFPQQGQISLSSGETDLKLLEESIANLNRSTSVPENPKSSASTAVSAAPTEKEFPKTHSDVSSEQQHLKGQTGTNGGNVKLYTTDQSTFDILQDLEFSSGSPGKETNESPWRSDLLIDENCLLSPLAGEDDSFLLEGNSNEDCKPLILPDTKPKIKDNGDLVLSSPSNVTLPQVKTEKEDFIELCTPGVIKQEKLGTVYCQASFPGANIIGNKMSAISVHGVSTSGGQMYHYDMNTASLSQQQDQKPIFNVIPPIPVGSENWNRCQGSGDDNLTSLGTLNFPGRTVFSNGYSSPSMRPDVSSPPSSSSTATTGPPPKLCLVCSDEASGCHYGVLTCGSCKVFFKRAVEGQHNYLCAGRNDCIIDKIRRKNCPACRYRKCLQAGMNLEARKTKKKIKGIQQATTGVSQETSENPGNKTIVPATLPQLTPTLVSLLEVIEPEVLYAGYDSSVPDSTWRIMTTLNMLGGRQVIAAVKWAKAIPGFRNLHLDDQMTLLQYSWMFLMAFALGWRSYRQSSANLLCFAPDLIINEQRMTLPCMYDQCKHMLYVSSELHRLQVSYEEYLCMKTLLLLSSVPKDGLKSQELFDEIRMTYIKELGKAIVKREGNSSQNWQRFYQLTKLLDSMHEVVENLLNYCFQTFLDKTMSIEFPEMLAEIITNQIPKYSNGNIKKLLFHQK
Method: Compounds of the invention were evaluated for binding to the steroid receptor by a fluorescence polarization competitive binding assay.
A. Glucocorticoid Receptor Competitive Binding Assay
Step 1. Characterization of the Fluorescent Probe
The wavelengths for maximum excitation and emission of the fluorescent probe should first be measured. An example of such a probe is rhodamine (TAMRA)-labeled dexamethasone.
The affinity of the probe for the steroid receptor was then determined in a titration experiment. The fluorescence polarization value of the probe in assay buffer was measured on an SLM-8100 fluorometer using the excitation and emission maximum values described above. Aliquots of expression vector lysate were added and fluorescence polarization was measured after each addition until no further change in polarization value was observed. Non-linear least squares regression analysis was used to calculate the dissociation constant of the probe from the polarization values obtained for lysate binding to the probe.
Step 2. Screening for Inhibitors of Probe Binding
This assay uses fluorescence polarization (FP) to quantitate the ability of test compounds to compete with tetramethyl rhodamine (TAMRA)-labeled dexamethasone for binding to a human glucocorticoid receptor (GR) complex prepared from an insect expression system. The assay buffer was: 10 mM TES, 50 mM KCl, 20 mM Na2MoO4.2H2O, 1.5 mM EDTA, 0.04% w/v CHAPS, 10% v/v glycerol, 1 mM dithiothreitol, pH 7.4. Test compounds were dissolved to 1 mM in neat DMSO and then further diluted to 10× assay concentration in assay buffer supplemented with 10% v/v DMSO. Test compounds were serially diluted at 10× assay concentrations in 10% DMSO-containing buffer in 96-well polypropylene plates. Binding reaction mixtures were prepared in 96-well black Dynex microtiter plates by sequential addition of the following assay components to each well: 15 μL of 10× test compound solution, 85 μL of GR-containing baculovirus lysate diluted 1:170 in assay buffer, and 50 μL of 15 nM TAMRA-labeled dexamethasone. Positive controls were reaction mixtures containing no test compound; negative controls (blanks) were reaction mixtures containing 0.7 μM to 2 μM dexamethasone. […] IC50 values were determined by iterative non-linear curve fitting of the FP signal data to a 4-parameter logistic equation.

glucocorticoid receptor = conditions: in one or more of the above assays; assay not specified
Method: Evaluation of agonist or antagonist activity of compounds binding to the glucocorticoid receptor may be determined by any of the assays.
3. Modulation of Tyrosine Aminotransferase (TAT) Induction in Rat Hepatoma Cells
Testing of compounds for agonist or antagonist activity in induction of tyrosine aminotransferase (TAT) in rat hepatoma cells.
H4-II-E-C3 cells were incubated overnight in 96 well plates (20,000 cells/100 μL/well) in MEM medium containing 10% heat inactivated FBS and 1% nonessential amino acids. On the next day, cells were stimulated with the indicated concentrations of dexamethasone or test compound (dissolved in DMSO, final DMSO concentration 0.2%) for 18 hours. Control cells were treated with 0.2% DMSO. After 18 hours, the cells were lysed in a buffer containing 0.1% Triton X-100 and the TAT activity was measured in a photometric assay using tyrosine and alpha-ketoglutarate as substrates.
For measuring antagonist activity, the hepatoma cells were pre-stimulated by addition of dexamethasone (concentration ranges from 3×10^−9 M to 3×10^−8 M) shortly before the test compound was applied to the cells.
4. Modulation of MMTV-Luc Induction in HeLa Cells
Testing of compounds for agonist or antagonist activity in stimulation of MMTV-(mouse mammary tumor virus) promoter in HeLa cells. […]

| Structure (SMILES) | activity in the GR binding assay [1] | activity as antagonists of the glucocorticoid receptor function (glucocorticoid receptor) |
| --- | --- | --- |
| CC(C)(CC(O)(Cc1ccccc1)C(=O)Nc1ccc2c(c1)COC2=O)c1ccccc1 (centres unmarked) [2-Benzyl-2-hydroxy-4-methyl-4-phenylpentanoic acid (1-oxo-1,3-dihydroisobenzofuran-5-yl)amide] | potent activity | activity as antagonists |
| CC(C)(CC(O)(CC1CCCCC1)C(=O)Nc1ccc2c(c1)COC2=O)c1ccccc1 (centres unmarked) [2-Cyclohexylmethyl-2-hydroxy-4-methyl-4-phenylpentanoic acid (1-oxo-1,3-dihydroisobenzofuran-5-yl)amide] | potent activity | activity as antagonists |
| COc1ccc(F)cc1C(C)(C)CC(O)(Cc1ccccc1C)C(=O)Nc1ccc2c(c1)COC2=O (centres unmarked) [4-(5-Fluoro-2-methoxyphenyl)-2-hydroxy-4-methyl-2-(2-methylbenzyl)pentanoic acid (1-oxo-1,3-dihydroisobenzofuran-5-yl)amide] | potent activity | – |
